Assay results as given in US9387195B2, “Methods for treating diseases using isoindoline compounds” (Celgene Corporation, priority 2011, dated 2016).

Key:
TNF-α production = experiment: TNF-α ELISA, CpG-A stimulated human PBMCs or pDCs (Example 15); type: cell-based
Experimental: (§1) The IFN-α and TNF-α levels were measured by enzyme-linked immunoabsorbant assay (ELISA) obtained from R&D System, Minneapolis, Minn., known as Human IFN-alpha ELISA Kit (PBL Interferon Source, Cat #41100-1) and Human TNF-alpha Quantikine ELISA Kit (ThermoScientific, Cat # EH3TNFA5) respectively. […] Compounds were diluted with DMSO (PBMCs) or media (pDCs) from a 4 mM stock of each compound to obtain different concentrations. Human PBMCs or pDCs were pretreated with different concentrations of compounds for an hour prior stimulation. Cells were then stimulated with 1 μM (PBMCs) or 10 μM (PDCs) CpG-A ODN 2216 for 18 hours. The samples with Compound (II) (0.25 μM, 0.5 μM and 1 μM) are labeled as Examples B1-B3; the samples with Compound (I) (0.25 μM, 0.5 μM and 1 μM) are labeled as Examples B4-B6; the samples with CC-930 (1.0 μM, 2.0 μM and 3.0 μM) are labeled as Examples B7-B9; and the samples with chloroquine (0.5 μM, 1.0 μM and 2.0 μM) are labeled as Examples B10-B12. Keratinocytes of samples (Examples B1-B12) cultured in the presence of pDCs were stimulated with CpG-A oligonucleotide. Two control experiments were done. The first control experiment (Control BB1) was done with similar procedures mentioned-above but without CpG-A stimulation and without the addition of inhibitors. The second control experiment (Control BB2) was done with similar procedures mentioned-above but without the addition of inhibitors. Supernatant was collected after 18 hours. IFN-α and TNF-α levels were assayed by ELISA according to manufacturer's instructions.

keratinocyte MxA [1] = experiment: pDC-keratinocyte co-culture with CpG-A stimulation, keratinocyte MxA level (Example 16); type: cell-based, human; details: for decrease in the keratinocyte MxA level: relative to Control BB2
Experimental: (§2) The Human pDC/HEKa Coculture involves stimulation with CpG-A oligodeoxynucleotide. CpG-A-stimulation would induce pDCs to secrete interferon-alpha (IFN-α) which in turn elicits increased expression of MxA protein from keratinocytes. HEKa were plated in 6-well plates at density of 1×10^5 cells/well and incubated overnight in a defined keratinocyte medium. The medium was removed in the next day and then 1.8×10^5 pDC cells, in defined pDC medium, were overlaid on the HEKa cells. Compound (II) was added to the medium to obtain final concentrations of 0.25 μM, 0.5 μM and 1 μM. One hour after the addition of Compound (II), CpG-A was added to each of the concentrations and then incubated overnight. Same samples from Example 15 were used here.
(§3) The cells were fixed and immunostained the co-cultures with antibodies to keratinocyte myxovirus resistance protein A (MxA) and Cytokeratin as follows using the ThermoScientific Cellomics High Content Screening (HCS) Readers using vHCS Scan Software.
(§4) Eighteen hours after the addition of Compound (II), cocultures were fixed for 30 minutes with BD fixation/permeabilization buffer, washed, and blocked with 2% normal goat serum/bovine serum albumin solution for an hour. Cocultures were then incubated overnight with primary antibodies to MxA and Cytokeratin. Cells were washed and incubated for an hour with Alexa anti-goat and anti-rabbit fluorescein (IgG1) or TRITC-conjugated (IgG) secondary antibodies. […] Cocultures were washed and incubated in 1X phosphate buffered saline (PBS) and plates scanned using Thermo Scientific ArrayScan VTI HCS Reader, a modular High Content Screening instrument designed for high-capacity automated fluorescence imaging and quantitative analysis of fixed and live cells. The output was analyzed using Cellomics Compartmental Analysis algorithm to quantitate fluorescence levels in the green and red channels. […] Mean fluorescence intensity levels of MxA and Cytokeratin of the samples were expressed as percentage of mean fluorescence intensity levels of MxA and cytokeratin of Control BB2. […]

IFN-α production [2] = experiment: IFN-α ELISA in CpG-A stimulated hPBMC (Example 18); type: cell-based, human; details: 1 μM CpG-A, 18 hours
Experimental: Human PBMCs (1×10^5 cells) were plated in 96-well plates (PBMCs) in RPMI media containing 10% FBS. Compounds were diluted with DMSO from a 4 mM stock of each compound to obtain different concentrations. Human PBMCs were pretreated with different concentrations of compounds for an hour prior stimulation. Cells were then stimulated with CpG-A ODN 2216 (1 μM) for 18 hours. […] The samples (Control E1 and Examples E2-E20) contained 1 μM CpG-A. Supernatant was collected after 18 hours. The IFN-α levels of samples were measured by the IFN-α ELISA obtained from PBL Interferon Source, Piscataway, N.J., known as Human IFN-alpha ELISA Kit. IFN-α levels of samples were assayed by the ELISA according to manufacturer's instructions. Inhibition of the production of IFN-α by individual compounds were determined in the CpG-A stimulated hPBMC cultures.

keratinocyte cytokeratin = experiment: pDC-keratinocyte co-culture with CpG-A stimulation, cytokeratin level (Example 16); type: cell-based, human; details: relative to Control BB2
Experimental: as §2, §3, §4

IFN-α production [3] = experiment: IFN-α ELISA, CpG-A stimulated human PBMCs or pDCs (Example 15); type: cell-based
Experimental: as §1

cytokeratin = experiment: Human pDC/HEKa coculture with CpG-A stimulation, cytokeratin level (Example 14); type: cell-based; details: 0.25-2 μM; relative to Example A1
Experimental: The Human pDC/HEKa Coculture involves stimulation with CpG-A oligodeoxynucleotide 2216. The CpG-A stimulation would induce pDCs to secrete interferon-alpha (IFN-α) which in turn elicits increased expression of MxA protein from keratinocytes. HEKa were plated in 6-well plates at density of 1×10^5 cells/well and incubated overnight in a defined keratinocyte medium. The medium was removed in the next day and then 1.8×10^5 pDC cells, in defined pDC medium, were overlaid on the HEKa cells. Compound (II) was added to the medium to obtain final concentrations of 0.25 μM, 0.5 μM, 1 μM and 2 μM. […]
as §3
Eighteen hours after the addition of Compound (II), cocultures were fixed for 30 minutes with BD fixation/permeabilization buffer, washed, and blocked with 2% normal goat serum/bovine serum albumin solution for an hour. […] Cocultures were washed and incubated in 1X phosphate buffered saline (PBS) and plates scanned using Thermo Scientific ArrayScan VTI HCS Reader, a modular High Content Screening instrument designed for high-capacity automated fluorescence imaging and quantitative analysis of fixed and live cells. […]

keratinocyte MxA [4] = experiment: Human pDC/HEKa coculture with CpG-A stimulation, keratinocyte MxA level (Example 14); type: cell-based; details: relative to CpG-A stimulated Example A1
Experimental: The Human pDC/HEKa Coculture involves stimulation with CpG-A oligodeoxynucleotide 2216. The CpG-A stimulation would induce pDCs to secrete interferon-alpha (IFN-α) which in turn elicits increased expression of MxA protein from keratinocytes. HEKa were plated in 6-well plates at density of 1×10^5 cells/well and incubated overnight in a defined keratinocyte medium. The medium was removed in the next day and then 1.8×10^5 pDC cells, in defined pDC medium, were overlaid on the HEKa cells. Compound (II) was added to the medium to obtain final concentrations of 0.25 μM, 0.5 μM, 1 μM and 2 μM. One hour after the addition of Compound (II), CpG-A was added to each of these concentrations and then incubated overnight.
as §3
Eighteen hours after the addition of Compound (II), cocultures were fixed for 30 minutes with BD fixation/permeabilization buffer, washed, and blocked with 2% normal goat serum/bovine serum albumin solution for an hour. Cocultures were then incubated overnight with primary antibodies to MxA and Cytokeratin. Cells were washed and incubated for an hour with Alexa anti-goat and anti-rabbit fluorescein (IgG1) or TRITC-conjugated (IgG) secondary antibodies. Nuclei were stained with DAPI or 4′,6-diamidino-2-phenylindole. Cocultures were washed and incubated in 1X phosphate buffered saline (PBS) and plates scanned using Thermo Scientific ArrayScan VTI HCS Reader, a modular High Content Screening instrument designed for high-capacity automated fluorescence imaging and quantitative analysis of fixed and live cells. The output was analyzed using Cellomics Compartmental Analysis algorithm to quantitate fluorescence levels in the green and red channels. Data was exported to Microsoft Excel worksheets. Mean fluorescence intensity levels of MxA and Cytokeratin of the samples were expressed as percentage of mean fluorescence intensity levels of MxA and cytokeratin of Example A1. Histograms were generated and statistical analysis was performed using GraphPad Prism v4.0 (GraphPad Software, Inc., San Diego, Calif.).
FIGS. 1-2 show the levels of keratinocyte MxA and cytokeratin of the samples averaged from four independent experiments relative to the keratinocyte MxA and cytokeratin levels of Example A1 with pDCs derived from separate donors. […]

[5] = 0.25, 0.5 and 1 μM, relative to CpG-A stimulation (Control BB2)
[6] = 0.25, 0.5 and 1 μM, relative to CpG-A stimulation (Control BB2), P<0.0001
[7] = 1.0, 2.0 and 3.0 μM (Examples B7-B9), relative to Control BB2
[8] = Homo sapiens, PBMC, read-out: inhibition of the production of IFN-α

Compound: CCOc1cc(C(CS(C)(=O)=O)N2C(=O)c3cccc(NC(C)=O)c3C2=O)ccc1OC (single isomer, unassigned; (+)) [Compound (I), (+)-2-[1-(3-ethoxy-4-methoxyphenyl)-2-methylsulfonylethyl]-4-acetylaminoisoindoline-1,3-dione]
- inhibition of the production of TNF-α (TNF-α production; [5]): inhibited
- ability to inhibit the production of the keratinocyte MxA, among the compounds tested (keratinocyte MxA [1]; 0.25, 0.5 and 1 μM (Examples B4-B6)): greatest ability to inhibit
- inhibition of the production of IFN-α (IFN-α production [2]; 0.5 μM, versus Control E1): significant inhibition
- inhibition of the production of IFN-α (IFN-α production [2]; 5 μM, versus Control E1): significant inhibition
- effect on the keratinocyte cytokeratin (keratinocyte cytokeratin): no significant effect
- inhibition of the production of IFN-α (IFN-α production [3]; [6]): inhibited

Compound: O[C@H]1CC[C@H](Nc2ncc3nc(Nc4c(F)cc(F)cc4F)n([C@H]4CCOC4)c3n2)CC1 [CC-930, reference compound]
- inhibition of the production of TNF-α (TNF-α production; [7]): approximately 25%
- decrease in the keratinocyte MxA level (keratinocyte MxA [1]; 1 μM, P<0.05): 32%
- inhibition of the production of IFN-α (IFN-α production [2]; 10 μM, versus Control E1): inhibited
- effect on the keratinocyte cytokeratin (keratinocyte cytokeratin): no significant effect
- inhibition of the production of IFN-α (IFN-α production [3]; [7]): approximately 25%

Compound: CCN(CC)CCCC(C)Nc1ccnc2cc(Cl)ccc12 (stereo not drawn) [Chloroquine, chloroquine]
- inhibition at 2 µM (TNF-α production; Homo sapiens, PBMC, read-out: inhibition of the production of TNF-α): ~50%
- inhibition of the production of IFN-α (IFN-α production [2]; 5 μM, versus Control E1): induced inhibition
- inhibition at 1 µM (IFN-α production [3]; [8]): ~75%
- inhibition at 2 µM (IFN-α production [3]; [8]): ~75%

Compound: CCOc1cc([C@@H](CS(C)(=O)=O)N2Cc3cccc(NC(=O)C4CC4)c3C2=O)ccc1OC [Compound (II), Cyclopropyl{2-[(1S)-1-(3-ethoxy-4-methoxyphenyl)-2-(methylsulfonyl)ethyl]-3-oxoisoindolin-4-yl}carboxamide]
- inhibition of the production of TNF-α (TNF-α production; [5]): inhibited
- decrease in the keratinocyte MxA level (keratinocyte MxA [1]; 0.25, 0.5 and 1 μM (Examples B1-B3)): 13-15%
- effect on the cytokeratin levels on the keratinocytes (cytokeratin): no effect
- inhibition of the production of IFN-α (IFN-α production [2]; 0.5 μM, versus Control E1): significant inhibition
- inhibition of the production of IFN-α (IFN-α production [2]; 5 μM, versus Control E1): significant inhibition
- effect on the keratinocyte cytokeratin (keratinocyte cytokeratin): no significant effect
- decrease in the keratinocyte MxA protein levels (keratinocyte MxA [4]; 0.25 μM): 19%
- decrease in the keratinocyte MxA protein levels (keratinocyte MxA [4]; 0.5 μM): 39%
- decrease in keratinocyte MxA levels (keratinocyte MxA [4]; 1 μM): 29%
- decrease in keratinocyte MxA levels (keratinocyte MxA [4]; 2 μM): 40%
- inhibition of the production of IFN-α (IFN-α production [3]; [6]): inhibited

Compound: Nc1cccc2c1CN(C1CCC(=O)NC1=O)C2=O (stereo not drawn) [Lenalidomide, lenalidomide]
- inhibition of the production of IFN-α (IFN-α production [2]; 10 μM, versus Control E1): did not affect

Compound: CCN(CC)CCCC(C)Nc1c2ccc(Cl)cc2nc2ccc(OC)cc12 (stereo not drawn) [Quinacrine, quinacrine]
- inhibition of the production of IFN-α (IFN-α production [2]; 0.5 and 5 μM (Examples E19-E20)): inhibited

Compound: CCN(CCO)CCCC(C)Nc1ccnc2cc(Cl)ccc12 (stereo not drawn) [hydroxychloroquine]
- inhibition of the production of IFN-α (IFN-α production [2]; 5 μM, versus Control E1): induced inhibition

Compound: O=C1CCC(N2C(=O)c3ccccc3C2=O)C(=O)N1 (stereo not drawn) [thalidomide]
- inhibition of the production of IFN-α (IFN-α production [2]; 10 μM, versus Control E1): did not affect
